In US20100120708A1, “Combination therapy comprising ZD6474 and gemcitabine for anti-cancer therapy” (priority 2002, published 2010):
“And” between values parts separate entries of the source, which are not always exact repeats. Equal values may be shown once. Where a name gives a salt, the structure may show the parent alone.

System: L 3.6 μl human pancreatic cancer cells
Test: Effects of ZD6474 and gemcitabine therapy on primary pancreatic tumour growth and metastases growing orthotopically in nude mice
Type: in vivo
Conditions: sacrificed day 32, ZD6474 50 mg/kg oral daily, gemcitabine 100 mg/kg i.p. twice weekly; for Incidence Pancreas (incidence of pancreatic tumours): orthotopic injection into pancreas, treatment from 8 days post-tumour injection; for Incidence Pancreas (incidence of pancreatic tumours) / LN Met (incidence of lymph node metastases) / Liver Met (incidence of liver metastases) / Peritoneal Carcinosis (incidence): animals affected/animals in group; for LN Met (incidence of lymph node metastases) / Liver Met (incidence of liver metastases) / Peritoneal Carcinosis (incidence): orthotopic; for Tumour Weight Average +/− std dev: primary pancreatic tumour weight, control 1231 mg; for Body Weight Average +/− std dev: control 21.4 g
Procedure: Model to Investigate Effects of ZD6474 and Gemcitabine Therapy on Primary Pancreatic Tumour Growth and Metastases Growing Orthotopically in Nude Mice
Nude mice (n=10 per group) were injected with 1×10^6 […] human pancreatic cancer cells into the pancreas. The mice received one of the following treatment regimes 8 days post-tumour injection:
Group 1—control group received saline by daily oral application; Group 2—a single daily dose of ZD6474 (50 mg/kg oral gavage); Group 3—gemcitabine twice weekly (on days 2 and 5 of each treatment week) (100 mg/kg by intraperitoneal injection (i.p.)); Group 4—a single daily dose of ZD6474 (50 mg/kg oral gavage) and twice weekly gemcitabine (on days 2 and 5 of each treatment week) (GEM: 100 mg/kg i.p.).
The animals were sacrificed 32 days after tumour cell injection.
The incidence of pancreatic tumours, liver metastases, lymph node metastases and peritoneal carcinosis was evaluated. The primary pancreatic tumour weight was measured. All macroscopically enlarged lymph nodes and liver nodules were confirmed by histopathology (H&E staining).

Row | SMILES | Incidence Pancreas (incidence of pancreatic tumours) | LN Met (incidence of lymph node metastases) | Liver Met (incidence of liver metastases) | Peritoneal Carcinosis (incidence) | Tumour Weight Average +/− std dev | Tumour Weight Average +/− std dev (listed as gemcitabine) | Body Weight Average +/− std dev
1 | Nc1ccn([C@@H]2O[C@H](CO)[C@@H](O)C2(F)F)c(=O)n1 [Gemcitabine, 2′-deoxy-2′,2′-difluorocytidine monohydrochloride (β-isomer)] | 9/9 | 9/9 | 4/9 | 3/9 | 836 ± 291 mg | 836 mg | 21.7 ± 2.1 g
2 | COc1cc2c(Nc3ccc(Br)cc3F)ncnc2cc1OCC1CCN(C)CC1 [ZD6474, 4-(4-bromo-2-fluoroanilino)-6-methoxy-7-(1-methylpiperidin-4-ylmethoxy)quinazoline] | 10/10 | 3/10 | 1/10 | 1/10 | 541 mg and 541 ± 201 mg |  | 19.2 ± 2.9 g
